# Like-named read-outs stand apart in the source and are kept apart here. Marks after values point to notes of the source that are not given here.
# Columns and labels:
# bone marrow cells = assay: Expression of Thy1 marker by bone marrow cells (flow cytometry) after SCV-07 treatment; assay type: in vivo, mice
# From the text: Materials and Methods: Eighteen (18) to twenty (20) gram (g) male mice, purchased from the Rappolovo Animal Facility, Russia, were used in the studies described below. C57BL/6 (B6) mice were used to evaluate the effect of SCV-07 in non-immunized mice. CBAxC57BL/6 (F1) mice were used for studies of the effects of SCV-07 on the antigen-specific immune response. Mice were kept under the standard animal facility conditions and were provided with a standard diet and water ad libitum. Each treatment group included 4-5 mice. […] A suspension containing filling agents alone, which corresponded to the maximum amount of filling agents in the doses of SCV-07 administered to experimental animals, was used a control. Thigh bones were removed from treated mice under aseptic conditions, and the medullary cavities were […] washed with PBS. Fragments of the bone marrow were minced by passing the tissue through a syringe needle. The resulting cell suspension was filtered through a double gauze layer and washed in PBS. After erythrocytes were lysed, the cells were counted and transferred to flat bottom culture plates. Due to an almost complete lack of spontaneous proliferation, the absolute values of proliferation, which were expressed as counts per minute (CPM), were determined and the Con A-induced proliferation of thymic cells from animals of different groups were compared. Analysis by Flow Cytometry: […] Immunomodulatory Activity of SCV-07 After Oral Administration: Thy1-positive lymphocytes, the precursors of T-cells in the bone marrow, increased in a dose-dependent manner in mice after treatment with SCV-07 per os. These increases were analogous to those observed in mice which received SCV-07 i.p (Table 2).
# [1] = tested on: IL-2 production by ConA-stimulated splenocytes; assay: IL-2 production by ConA-stimulated splenocytes; assay type: in vivo, mice
# HBsAg = assay type: in vivo, human; settings: for Antibodies to HBsAg not detected, % / Antibodies to HBsAg not detected, Abs / Protective titer against HBsAg (>10 mMU/mL), % / Protective titer against HBsAg (>10 mMU/mL), Abs: one month after the end of vaccination; for concentration of antibodies to HBsAg in the blood: one month after immunization
structure (smiles),measurement,setting,value
"N[C@H](CCC(=O)N[C@@H](Cc1c[nH]c2ccccc12)C(=O)O)C(=O)O [SCV-07, γ-D-glutamyl-L-tryptophan]","Thy-1 positive cells, %",bone marrow cells; 0.1 μg/kg per os,12.9 ± 1.2%
same,"Thy-1 positive cells, %",bone marrow cells; 1.0 μg/kg i/p,15.4 ± 0.1%
same,"Thy-1 positive cells, %",bone marrow cells; 1.0 μg/kg per os,14.9 ± 1.3%
same,"Thy-1 positive cells, %",bone marrow cells; 10.0 μg/kg per os,16.0 ± 0.7%
same,"Thy-1 positive cells, %",bone marrow cells; 100.0 μg/kg per os,16.0 ± 1.2%
same,"IL-2 production (U/ml), M ± SD","[1]; ConA 1 μg/ml, 0.01 μg/kg per os",10.4 ± 1.1 U/ml
same,"IL-2 production (U/ml), M ± SD","[1]; ConA 1 μg/ml, 0.1 μg/kg i/p",16.1 ± 0.8 U/ml
same,"IL-2 production (U/ml), M ± SD","[1]; ConA 1 μg/ml, 0.1 μg/kg per os",7.5 ± 0.1 U/ml
same,"IL-2 production (U/ml), M ± SD","[1]; ConA 1 μg/ml, 1.0 μg/kg i/p",15.6 ± 0.3 U/ml
same,"IL-2 production (U/ml), M ± SD","[1]; ConA 1 μg/ml, 1.0 μg/kg per os",10.0 ± 0.4 U/ml
same,"IL-2 production (U/ml), M ± SD","[1]; ConA 1 μg/ml, 10.0 μg/kg per os",9.1 ± 1.3 U/ml
same,"IL-2 production (U/ml), M ± SD","[1]; ConA 1 μg/ml, 100.0 μg/kg per os",14.9 ± 2.4 U/ml
same,"IL-2 production (U/ml), M ± SD","[1]; ConA 2 μg/ml, 0.01 μg/kg per os",66.9 ± 12.6 U/ml
same,"IL-2 production (U/ml), M ± SD","[1]; ConA 2 μg/ml, 0.1 μg/kg i/p",93.4 ± 28.3 U/ml
same,"IL-2 production (U/ml), M ± SD","[1]; ConA 2 μg/ml, 0.1 μg/kg per os",85.8 ± 6.6 U/ml
same,"IL-2 production (U/ml), M ± SD","[1]; ConA 2 μg/ml, 1.0 μg/kg i/p",99.3 ± 6.1 U/ml
same,"IL-2 production (U/ml), M ± SD","[1]; ConA 2 μg/ml, 1.0 μg/kg per os",60.8 ± 1.2 U/ml
same,"IL-2 production (U/ml), M ± SD","[1]; ConA 2 μg/ml, 10.0 μg/kg per os",56.4 ± 2.1 U/ml
same,"IL-2 production (U/ml), M ± SD","[1]; ConA 2 μg/ml, 100.0 μg/kg per os",79.3 ± 16.3 U/ml
same,"IL-2 production (U/ml), M ± SD","[1]; Spontaneous, 0.01 μg/kg per os",0.0 ± 0.0 U/ml
same,"IL-2 production (U/ml), M ± SD","[1]; Spontaneous, 0.1 μg/kg i/p",2.0 ± 0.3 U/ml
same,"IL-2 production (U/ml), M ± SD","[1]; Spontaneous, 0.1 μg/kg per os",0.0 ± 0.0 U/ml
same,"IL-2 production (U/ml), M ± SD","[1]; Spontaneous, 1.0 μg/kg i/p",2.7 ± 0.3 U/ml
same,"IL-2 production (U/ml), M ± SD","[1]; Spontaneous, 1.0 μg/kg per os",0.3 ± 0.5 U/ml
same,"IL-2 production (U/ml), M ± SD","[1]; Spontaneous, 10.0 μg/kg per os",0.0 ± 0.0 U/ml
same,"IL-2 production (U/ml), M ± SD","[1]; Spontaneous, 100.0 μg/kg per os",0.3 ± 0.5 U/ml
same,"Antibodies to HBsAg not detected, %","HBsAg; Group 2, SCV-07, n = 32",3.1** %
same,"Antibodies to HBsAg not detected, Abs","HBsAg; Group 2, SCV-07, n = 32",1
same,"Protective titer against HBsAg (>10 mMU/mL), %","HBsAg; Group 2, SCV-07, n = 32",96.9%
same,"Protective titer against HBsAg (>10 mMU/mL), Abs","HBsAg; Group 2, SCV-07, n = 32",31
same,"Antibodies to HBsAg not detected, %","HBsAg; Group 3, healthy, n = 33",6.1* %
same,"Antibodies to HBsAg not detected, Abs","HBsAg; Group 3, healthy, n = 33",2
same,"Protective titer against HBsAg (>10 mMU/mL), %","HBsAg; Group 3, healthy, n = 33",93.9%
same,"Protective titer against HBsAg (>10 mMU/mL), Abs","HBsAg; Group 3, healthy, n = 33",31
same,concentration of antibodies to HBsAg in the blood,HBsAg; healthy subjects (Group III),253.6 MU/L
same,concentration of antibodies to HBsAg in the blood,HBsAg; immunodeficient patients who received SCV-07 at the time of vaccination,263.3 MU/L

# From patent publication US20090074815A1, “Immunomodulator Compounds as Vaccine Enhancers” (SCICLONE PHARMACEUTICALS, INC., priority 2005, published 2009)
